Experiment [1] concerns ARR6 promoter. In words: Arabidopsis mesophyll protoplast transient expression assay, ARR6-LUC reporter. Type of experiment: cell-based. The following applies: for activity of ARR6-LUC (hormone specificity): 100 nM t-zeatin, 1 μM IAA or 100 μM ABA, 3 hours of incubation; for induction of the reporter gene ARR6-LUC by cytokinin analogues: 100 nM, FIG. 1C; for activation of ARR6-LUC by over-expressed effector: absence of exogenous cytokinin. The method, then: To elucidate the regulatory circuitry in cytokinin signal transduction, a leaf cell assay based on cytokinin inducible transcription in Arabidopsis mesophyll protoplasts was developed. The 2.4 kb promoter of an Arabidopsis cytokinin primary response gene (SEQ ID NO.: 1), encoding the response regulator 6 (ARR6), was fused to the firefly luciferase (LUC) reporter. In FIG. 1A, transfected protoplasts were incubated with or without 100 nM t-zeatin, 1 μM indole-3-acetic acid (IAA), or 100 μM ABA. After 3 hours of incubation, LUC and GUS activities were determined.
(§1) Arabidopsis Bensheim (BE) protoplasts were isolated and transfected as described with some modifications (Kovtun et al., Proc. Natl. Acad. Sci. USA 97: 2940-5 2000). […] For instance, in the experiments shown in FIG. 1A, protoplasts (4×10^4) were transfected with 2 μg of UBQ10-GUS (internal control) and 20 μg of ARR6-LUC, GH3-LUC, or RD29ALUC plasmid DNA. Transfected protoplasts were incubated at 1×10^4 per mil with/without 1-100 nM of t-zeatin for 3-6 hours under the light at 23° C. The UBQ10-GUS construct was used as an internal control to normalize the variations of each transfection in cell numbers, transformation efficiency and cell viability. […] GFP fluorescence was observed by either Nikon TE200 fluorescent microscopy or Leica TCSNT confocal microscopy.
Background: In a reporter assay the amount or activity of a reporter protein is the signal.

The test system of experiment [2] is AHP1-GFP. The conditions noted are these: 100 nM t-zeatin, 30 minutes. As to the method:
(§2) To gain further in vivo support for the involvement of AHPs in cytokinin signalling, the action of AHP1-GFP in transfected protoplast in the absence or presence of cytokinin was followed using fluorescence microscopy. Specifically, protoplasts were transfected with AHP1-GFP, AHP2-GFP, or AHP5-GFP and incubated for 3 hours to allow sufficient expression.
as §1

In experiment [3] the test system is AHP5-GFP. The conditions noted are these: 100 nM t-zeatin, 30 minutes. As to the method: as §2, §1
Experiment [4] deals with RD29A promoter. In words: Arabidopsis mesophyll protoplast transient expression assay, RD29A-LUC reporter. Type of experiment: cell-based. The following applies: 100 μM ABA, 3 hours.
For experiment [5], the system named is CKI1-GFP. Nature of the experiment: GFP fusion expression and localization in transfected protoplasts (confocal microscopy). In kind it is cell-based, Arabidopsis. The following applies: tunicamycin 1 μg/ml, 12 hours. The method, then:
To gain insight into where the cytokinin signalling is perceived, the sub-cellular localization of CKI1 was examined using the CKI1-GFP fusion. We first confirmed that CKI1-GFP acted similarly as CKI1-HA in the protoplast assay based on ARR6-LUC activation (FIG. 1D). […] Specifically, protoplasts were transfected with CKI1-GFP or various GFP marker plasmid DNA. Tunicamycin (1 μg/ml) treatment was for 12 hours. The transfected protoplasts were analyzed with a confocal microscope. The subcellular GFP markers are “CAT-GFP” for the cytosol, “ER-GFP” for the endoplasmic reticulum, and “N-GFP” (HSP-GFP) for the nucleus. Since the N-terminus of CKI1 is replete with putative glycosylation sites, the effect of a glycosylation inhibitor, tunicamycin, in CKI1-GFP expression, localization or function was examined.

Experiment [6] has as its system GH3 promoter. In words: Arabidopsis mesophyll protoplast transient expression assay, GH3-LUC reporter. In kind it is cell-based. The following applies: 1 μM IAA, 3 hours.
Experiment [7] deals with Arabidopsis seedlings. In words: Seedling cytokinin response assay. In kind it is in vivo. The following applies: medium with 0.15 mg/L IAA alone or with 0.15 mg/L IAA and 5 mg/L 2IP, 14 days. An excerpt: In tissue culture, induction of cell proliferation and subsequent shoot formation require cytokinin. To determine whether the same cytokinin signalling pathway is responsible for transcription regulation, cell proliferation, shoot meristem initiation, and leaf formation, we developed a seedling cytokinin response assay. In FIGS. 4A and 4B, Arabidopsis seedlings were transformed with Agrobacteria carrying GFP, CKI1, CKI1 (H405Q), ARR2, and ARR6 constructs in the mini-binary vector pCB302 (Xiang et al., Plant Mol. Biol. 40: 711-7, 1999). Seedlings transformed with the Agrobacteria carrying the binary vector pCB301 […] a Bar selection marker were used as a transformation control (vector). The transformed seedlings were selected with glufosinate ammonium (10 μg/ml) and maintained on medium with auxin (IAA) only (FIG. 4A, +IAA, −2IP) or with auxin and cytokinin (FIG. 4B, +IAA, +2IP) for 14 days. The transformed tissues were mostly derived from the shoot apical meristem. […] Both CKI1 and ARR2 promoted extensive cell proliferation and shoot formation even without exogenous cytokinin. The experiments were repeated three times with similar results. […] The results of this cytokinin seedling assay are consistent with those from protoplast transient expression analyses based on transcription. […]

On to `C/C(=C\CNc1ncnc2nc[nH]c12)CO` [t-zeatin, trans-zeatin], for which, in experiment [1], the “activity of ARR6-LUC (hormone specificity)” value (from here on “activity of ARR6-LUC”) was “specifically induced” and the “induction of the reporter gene ARR6-LUC by cytokinin analogues” value is on record as “induced”. In experiment [2], the “AHP1-GFP localization after cytokinin treatment” value is recorded as “translocated into the nucleus”. Also, the AHP5-GFP cytokinin-dependent translocation result in experiment [3] is “not”.

In the case of `c1ccc(CNc2ncnc3nc[nH]c23)cc1` [BA, benzyladenine], the “induction of the reporter gene ARR6-LUC by cytokinin analogues” value in experiment [1] is recorded as “induced”.

`CC1=CC(=O)CC(C)(C)[C@@]1(O)/C=C/C(C)=C\C(=O)O` [ABA, abscisic acid]: the “activity of ARR6-LUC” value in experiment [1] is on record as “not by other plant hormones”. Moreover, the RD29A promoter induction result in experiment [4] is on record as “solely induced”.

In the case of tunicamycin, the “expression of CKI1-GFP” value in experiment [5] was “completely abolished”. Besides, the “expression of other GFP constructs” value in experiment [5] (CAT-GFP, ER-GFP, N-GFP markers) was “did not affect”.

For `O=C(O)Cc1c[nH]c2ccccc12` [IAA, indole-3-acetic acid], the “activity of ARR6-LUC” value in experiment [1] was “not by other plant hormones”. For the same molecule, in experiment [6], the GH3 promoter activation result is on record as “only activated”. Besides, the “callus / shoot formation of GFP control transformed seedlings” value in experiment [7] is recorded as “green callus formation”.

B1: ARR2: Arabidopsis B-type response regulator (SEQ ID NO.: 3), over-expressed from effector plasmid (protein, listed as Arabidopsis thaliana)
chain: MVNPGHGRGPDSGTAAGGSNSDPFPANLRVLVVDDDPTCLMILERMLMTCLYREQRAHCLCFGRTKNGFDIVISDVHMPDMDGFKLLEHVGLEMDLPVINLNVLKPLVIVMSADDSKSVVLKGVTHGAVDYLIKPVRIEALKNIWQHVVRKKRNEWNVSEHSGGSIEDTGGDRDRQQQHREDADNNSSSVNEGNGRSSRKRKEEEVDDQGDDKEDSSSLKKPRVVWSVELHQQFVAAVNQLGVDSELKTCLLMHLCVSIGNIVEFQKYRIYLRRLGGVSQHQGNMNHSFMTGQDQSFGPLSSLNGFDLQSLAVTGQLPPQSLAQLQAAGLGRPTLAKPGMSVSPLVDQRSIFNFENPKIRFGDGHGQTMNNGNLLHGVPTGSHMRLRPGQNVQSSGMMLPVADQLPRGGPSMLPSLGQQPILSSSVSRRSDLTGALAVRNSIPETNSRVLPTTHSVFNNFPADLPRSSFPLASAPGISVPVSVSYQEEVNSSDAKGGSSAATAGFGNPSYDIFNDFPQHQQHNKNISNKLNDWDLRNMGLVFSSNQDAATATATAAFSTSEAYSSSSTQRKRRETDATVVGEHGQNLQSPSRNLYHLNHVFMDGGSVRVKSERVAETVTCPPANTLFHEQYNQEDLMSAFLKQV
B1: in experiment [1], the “activation of ARR6-LUC by over-expressed effector” value is ~400 fold. Moreover, the “activation of ARR6-LUC by over-expressed effector with cytokinin treatment” value in experiment [1] (with cytokinin (100 nM t-zeatin, 3 hours)) is recorded as “over 1000 fold”.

B2: ARR1: Arabidopsis B-type response regulator (SEQ ID NO.: 2), over-expressed from effector plasmid (protein, listed as Arabidopsis thaliana)
chain: MALSLLRKNKHGFDIVISDVHMPDMDGFKLLEHVGLEMDLPVIMMSADDSKSVVLKGVTHGAVDYLIKPVRMEALKNIWQHVVRKRRSEWSVPEHSGSIEETGERQQQQHRGGGGGAAVSGGEDAVDDNSSSVNEGNNWRSSSRKRKDEEGEEQGDDKDEDASNLKKPRVVWSVELHQQFVAAVNQLGVEKAVPKKILELMNVPGLTRENVASHLQKYRIYLRRLGGVSQHQGNLNNSFMTGQDASFGPLSTLNGFDLQALAVTGQLPAQSLAQLQAAGLGRPAMVSKSGLPVSSIVDERSIFSFDNTKTRFGEGLGHHGQQPQQQPQMNLLHGVPTGLQQQLPMGNRMSIQQQIAAVRAGNSVQNNGMLMPLAGQQSLPRGPPPMLTSSQSSIRQPMLSNRISERSGFSGRNNIPESSRVLPTSYTNLTTQHSSSSMPYNNFQPELPVNSFPLASAPGISVPVRKATSYQEEVNSSEAGFTTPSYDMFTTRQNDWDLRNIGIAFDSHQDSESAAFSASEAYSSSSMSRHNTTVAATEHGRNHQQPPSGMVQHHQVYADGNGGSVRVKSERVATDTATMAFHEQYSNQEDLMSALLKQEGIAPVDGEFDFDAYSIDNIPV
As for B2, in experiment [1], the “activation of ARR6-LUC by over-expressed effector” value is “about 40 fold”.

B3: ARR10: Arabidopsis B-type response regulator (SEQ ID NO.: 9), over-expressed from effector plasmid (protein, listed as Arabidopsis thaliana)
chain: MTMEQEIEVLDQFPVGMRVLAVDDDQTCLRILQTLLQRCQYHVTTTNQAQTALELLRENKNKFDLVISDVDMPDMDGFKLLELVGLEMDLPVIMLSAHSDPKYVMKGVKHGACDYLLKPVRIEELKNIWQHVVRKSKLKKNKSNVSNGSGNCDKANRKRKEQYEEEEEEERGNDNDDPTAQKKPRVLWTHELHNKFLAAVDHLGVERAVPKKILDLMNVDKLTRENVASHLQKFRVALKKVSDDAIQQANRAAIDSHFMQMNSQKGLGGFYHHHRGIPVGSGQFHGGTTMMRHYSSNRNLGRLNSLGAGMFQPVSSSFPRNHNDGGNILQGLPLEELQINNNINRAFPSFTSQQNSPMVAPSNLLLLEGNPQSSSLPSNPGFSPHFEISKRLEHWSNAALSTNIPQSDVHSKPDTLEWNAFCDSASPLVNPNLDTNPASLCRNTGFGSTNAAQTDFFYPLQMNQQPANNSGPVTEAQLFRSSNPNEGLLMGQQKLQSGLMASDAGSLDDIVNSLMTQEQSQSDFSEGDWDLDGLAHSEHAYEKLHFPFSLSA
Take B3: in experiment [1], the “activation of ARR6-LUC by over-expressed effector” value was “about 10 fold”. Besides, the “further enhancement by cytokinin of effector's effect on ARR6-LUC activity” value in experiment [1] (with cytokinin, relative to effector alone) is 10-20 fold.

Source of the values: patent US20060185030A1, “Cytokinin response regulators and uses thereof” (priority 2001, published 2006).
